Source: ChEMBL document CHEMBL4619774 (J Med Chem, 2020)

Experiments:
[1] = Dose normalized AUC in C57BL/6 mouse at 100 mg/kg, po by LC-MS/MS analysis; type: ADME, organism-based; details: in vivo
[2] = AUC (0 to t) in Sprague-Dawley rat at 1 mg/kg, iv administered as bolus dose by HPLC-MS/MS analysis; type: ADME, organism-based; details: in vivo
[3] = Oral bioavailability in Sprague-Dawley rat at 3 mg/kg via gavage by HPLC-MS/MS analysis; type: ADME, organism-based; details: in vivo
[4] = Clearance in Sprague-Dawley rat at 1 mg/kg, iv by HPLC-MS/MS analysis; type: ADME, organism-based; details: in vivo
[5] = Clearance in C57BL/6 mouse at 0.4 mg/kg, iv bolus injection or 3 mg/kg, po by LC-MS/MS analysis; type: ADME, organism-based; details: in vivo
[6] = Dose normalized AUC (0 to t) in beagle dog at 75 mg/kg, po via gavage by HPLC-MS/MS analysis; type: ADME, organism-based, Canis lupus familiaris; details: in vivo
Coagulation factor VII = biological target: T1, Coagulation factor VII (Homo sapiens, UniProt P08709); type: single protein
T1 sequence (P08709 whole entry): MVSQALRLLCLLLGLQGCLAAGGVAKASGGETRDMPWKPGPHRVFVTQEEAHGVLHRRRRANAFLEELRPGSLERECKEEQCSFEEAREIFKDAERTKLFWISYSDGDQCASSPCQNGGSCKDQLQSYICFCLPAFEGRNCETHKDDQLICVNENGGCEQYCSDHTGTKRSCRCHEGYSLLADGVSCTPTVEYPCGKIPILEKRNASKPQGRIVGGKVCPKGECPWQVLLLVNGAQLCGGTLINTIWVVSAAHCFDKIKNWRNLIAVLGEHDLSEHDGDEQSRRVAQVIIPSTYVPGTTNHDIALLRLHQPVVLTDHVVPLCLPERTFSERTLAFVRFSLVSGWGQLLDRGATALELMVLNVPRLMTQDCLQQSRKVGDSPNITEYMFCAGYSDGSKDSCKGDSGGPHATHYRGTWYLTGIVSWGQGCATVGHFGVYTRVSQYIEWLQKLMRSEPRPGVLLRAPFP

[7] = Oral bioavailability in C57BL/6 mouse at 100 mg/kg by LC-MS/MS analysis; type: ADME, organism-based; details: in vivo
[8] = Dose normalized Cmax in beagle dog at 75 mg/kg, po via gavage by HPLC-MS/MS analysis; type: ADME, organism-based, Canis lupus familiaris; details: in vivo
[9] = Dose normalized Cmax in Sprague-Dawley rat at 30 mg/kg, po via gavage by HPLC-MS/MS analysis; type: ADME, organism-based; details: in vivo
Plasma kallikrein = Plasma kallikrein (Homo sapiens, UniProt P03952); type: single protein
Plasma kallikrein, sequence (P03952 20-390 limits assumed): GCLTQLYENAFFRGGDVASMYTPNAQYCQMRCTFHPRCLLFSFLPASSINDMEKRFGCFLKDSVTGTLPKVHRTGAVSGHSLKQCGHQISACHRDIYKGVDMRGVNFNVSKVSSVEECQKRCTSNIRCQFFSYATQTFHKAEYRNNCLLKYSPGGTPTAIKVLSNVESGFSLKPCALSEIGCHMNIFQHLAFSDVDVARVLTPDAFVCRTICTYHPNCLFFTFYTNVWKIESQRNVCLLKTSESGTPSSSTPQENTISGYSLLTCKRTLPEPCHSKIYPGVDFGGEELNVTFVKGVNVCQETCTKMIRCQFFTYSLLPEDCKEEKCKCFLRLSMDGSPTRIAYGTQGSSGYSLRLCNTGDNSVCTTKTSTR
Plasma kallikrein, sequence (P03952 391-638 limits assumed): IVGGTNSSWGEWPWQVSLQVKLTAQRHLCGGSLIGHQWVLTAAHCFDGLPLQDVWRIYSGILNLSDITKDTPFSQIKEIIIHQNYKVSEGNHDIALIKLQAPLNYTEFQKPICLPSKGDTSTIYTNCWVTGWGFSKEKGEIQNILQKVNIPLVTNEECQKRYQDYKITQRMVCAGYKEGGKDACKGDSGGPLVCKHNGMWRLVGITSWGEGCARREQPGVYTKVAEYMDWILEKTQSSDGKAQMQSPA

[10] = biological target: 3',5'-cyclic-AMP phosphodiesterase 4D (Homo sapiens, UniProt Q08499); test: Inhibition of PDE4D (unknown origin)
3',5'-cyclic-AMP phosphodiesterase 4D, sequence (Q08499 whole entry): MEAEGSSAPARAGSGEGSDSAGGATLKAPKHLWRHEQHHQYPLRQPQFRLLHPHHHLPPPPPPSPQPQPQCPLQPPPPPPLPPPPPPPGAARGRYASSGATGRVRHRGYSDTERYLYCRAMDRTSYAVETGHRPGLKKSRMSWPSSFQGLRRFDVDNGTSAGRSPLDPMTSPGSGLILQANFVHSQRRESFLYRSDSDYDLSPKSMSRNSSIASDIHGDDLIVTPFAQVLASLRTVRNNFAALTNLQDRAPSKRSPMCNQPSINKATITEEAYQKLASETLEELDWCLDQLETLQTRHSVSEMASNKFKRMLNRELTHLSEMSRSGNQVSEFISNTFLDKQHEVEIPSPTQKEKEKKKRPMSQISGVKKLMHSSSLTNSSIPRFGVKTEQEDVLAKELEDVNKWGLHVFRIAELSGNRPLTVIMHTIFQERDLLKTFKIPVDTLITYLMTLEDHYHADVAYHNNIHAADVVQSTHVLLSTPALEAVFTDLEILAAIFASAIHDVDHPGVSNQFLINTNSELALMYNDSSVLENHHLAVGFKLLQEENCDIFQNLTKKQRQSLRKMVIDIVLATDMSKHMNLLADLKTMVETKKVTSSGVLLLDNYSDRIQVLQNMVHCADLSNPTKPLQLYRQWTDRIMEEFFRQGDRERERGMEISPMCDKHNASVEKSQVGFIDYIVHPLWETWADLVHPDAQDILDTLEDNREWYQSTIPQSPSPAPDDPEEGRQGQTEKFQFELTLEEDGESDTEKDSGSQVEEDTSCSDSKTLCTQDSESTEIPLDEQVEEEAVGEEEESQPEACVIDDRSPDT

[11] = Volume of distribution at steady state in beagle dog at 1 mg/kg, iv by HPLC-MS/MS analysis; type: ADME, organism-based, Canis lupus familiaris; details: in vivo, read-out: Vdss
[12] = Volume of distribution at steady state in Sprague-Dawley rat at 1 mg/kg, iv administered as bolus dose by HPLC-MS/MS analysis; type: ADME, organism-based; details: in vivo, read-out: Vdss
[13] = Dose normalized Cmax in beagle dog at 10 mg/kg, po via gavage by HPLC-MS/MS analysis; type: ADME, organism-based, Canis lupus familiaris; details: in vivo

CC(C)c1cc(-c2ccc3c(c2)[C@H](N)CO3)cc([C@H](O)Cn2ccc3cccc(C(=O)O)c32)c1
AUC/dose [1]: 260215 nM·h | AUC(0-t) [2]: 3.33 µM·h | bioavailability [3]: 10% | clearance [4]: 9.4 mL/min/kg | clearance [5]: 11 mL/min/kg | AUCt/dose [6]: 2200 nM·h | IC50 (Coagulation factor VII): 3.65 µM | bioavailability [7]: 100% | Cmax/dose [8]: 504 nM | Cmax/dose [9]: 143 nM | IC50 (Plasma kallikrein): 0.001 µM | IC50 [10]: 2.4 µM | Vd [11]: 0.3 L/kg | Vd [12]: 1.3 L/kg | Cmax/dose [13]: 217 nM
